Drawing on ChEMBL document CHEMBL5604062, “ASAP - ZIKV NS2B-NS3 protease fluorescence dose response” (2024), this text covers IC50 for 35 compounds.

Values joined by “and” are separate entries in the source; they are usually repeats but may differ in a detail not shown here. Identical values can stand only once. Where only a bound is given, the exact number is not on record here.

The target in the assay is Nonstructural protein 3 (Zika virus, UniProt A0A024AXB9). As to the kind of experiment: Functional biochemical assay to identify treatments for viral infectious disease that targets Zika NS2B-NS3 protease. Utilizing a direct enzyme activity measurement method, reading the fluorescence intensity is used to characterize the relative potency of inhibitors as IC50. Also on record: species or system PRVABC59.
Chain of Nonstructural protein 3 (A0A024AXB9 whole entry): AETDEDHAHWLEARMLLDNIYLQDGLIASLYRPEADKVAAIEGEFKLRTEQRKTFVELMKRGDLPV

Take `c1ccc2c(CN3CCCc4cnccc4C3)n[nH]c2c1`: the concentration for half-maximal inhibition (IC50) (commonly the concentration that gives 50% inhibition) is above 99.5 µM.

On to `NCc1cccc(NC(=O)[C@@H]2C[C@@H]3CC[C@H]2N3C(=O)OCc2ccccc2)c1`, for which the IC50 is above 99.5 µM.

For the compound `COc1cc(C(=O)O)c(S(=O)(=O)Nc2ccc(Oc3ccccc3Cl)cc2)cc1F`, the IC50 came to 91.6 µM. In other words, the double-digit micromolar range.

`CN(C)Cc1cccc(-c2ccc(S(=O)(=O)Nc3ccc(Cl)cc3C(=O)O)cc2)c1` showed an IC50 above 99.5 µM.

Take `NCc1cccc(NC(=O)[C@@]23C[C@@H](NC(=O)OCc4ccccc4)C[C@@H]2C3)c1`: the IC50 is above 99.5 µM.

`O=C(O)c1cc(Cl)ccc1NS(=O)(=O)c1ccc(-c2cc[nH]n2)cc1` gave a half-inhibitory concentration (IC50) above 99.5 µM.

With `NCC1CCN(C(=O)c2cc(Cl)cc(NC(=O)OCc3ccccc3)c2)CC1`, the IC50 worked out at 97.3 µM.

Take `O=C(O)c1cc(Cl)ccc1S(=O)(=O)Nc1ccc(C(=O)N2CCCCC2)cc1`: the concentration for half-maximal inhibition (IC50) was above 99.5 µM.

In turn, `CN(C)[C@@H]1C[C@H](C(=O)Nc2cccc(CN)c2)CN(C(=O)OCc2ccccc2)C1` gave an IC50 above 99.5 µM.

With `O=C(O)c1cc(Cl)ccc1NS(=O)(=O)c1ccc(-c2cncs2)cc1`, half-maximal inhibition (IC50) required 34.4 µM.

Take `NCc1cccc(NC(=O)C[C@@H](NC(=O)OCc2ccccc2)C2CCCCC2)c1`: the IC50 is > 99.5 µM and 56.7 µM.

For the compound `NCc1cccc(NC(=O)C[C@@H]2[C@H]3CC[C@H](C3)N2C(=O)OCc2ccccc2)c1`, the 50% inhibitory concentration (IC50) is above 99.5 µM.

For the compound `NCCc1cccc(NC(=O)c2cc(Cl)cc(NC(=O)OCc3ccccc3)c2)c1`, the IC50 is 4.1 µM and 3.91 µM.

`Fc1cccc(F)c1-c1n[nH]cc1CN1CCC(c2nc3ccccc3s2)CC1` displayed an IC50 above 99.5 µM.

On to `COC(=O)Cc1ccccc1-c1ccc(S(=O)(=O)Nc2ccc(Cl)cc2C(=O)O)cc1`, for which the IC50 is above 99.5 µM.

Compound `N#Cc1ccc(S(=O)(=O)Nc2ccc(Oc3ccccc3Cl)cc2)c(C(=O)O)c1` registered a concentration for half-maximal inhibition (IC50) above 99.5 µM.

`O=C(O)c1cc(Cl)ccc1S(=O)(=O)Nc1ccc(-c2n[nH]c3c2CCCC3)cc1` yielded an IC50 above 99.5 µM.

Regarding `Cc1cc(C)cc(C(=O)N2CCC(NS(=O)(=O)c3ccc(Cl)cc3C(=O)O)CC2)c1`, the IC50 is above 99.5 µM.

Regarding `COc1ncc(C(=O)Nc2cccc(CN)c2)cc1NC(=O)OCc1ccccc1`, the 50% inhibitory concentration (IC50) is above 99.5 µM.

Regarding `C[C@@H]1C[C@H](NS(=O)(=O)c2ccc(Cl)cc2C(=O)O)C[C@H](C)N1Cc1ccccc1`, the IC50 is above 99.5 µM.

As to `Cc1cccc(N2CCC(NS(=O)(=O)c3ccc(Cl)cc3C(=O)O)CC2)n1`, the IC50 was above 99.5 µM.

`c1ccc2sc(C3CCN([C@H]4Cc5[nH]c6ccccc6c5C4)CC3)nc2c1`: the half-inhibitory concentration (IC50) is above 99.5 µM.

In turn, `CCn1cc(C(=O)NCc2ccccc2)nc(N2CC[C@@H](CO)C2)c1=O` gave an IC50 above 99.5 µM.

With `NCc1cccc(NC(=O)[C@@H](NS(=O)(=O)C[C@H]2CCCCO2)c2ccc(OCc3ccccc3)cc2)c1`, the half-maximal inhibitory concentration (IC50) is above 99.5 µM.

In the case of `CCc1ncc(CN2CCC(c3nc4ccccc4s3)CC2)[nH]1`, the 50% inhibitory concentration (IC50) was above 99.5 µM.

`COc1ccc(-c2cc(NS(=O)(=O)c3ccc(Cl)cc3C(=O)O)ccc2OC)cc1`: the IC50 is above 99.5 µM.

With `O=C(O)c1cc(Cl)ccc1NS(=O)(=O)c1ccc(-c2ccc(F)cc2)cc1`, the IC50 came out at 32.9 µM.

Regarding `CCCOc1ccc([C@@H](CC(=O)Nc2cccc(CN)c2)NC(=O)OCc2ccccc2)cc1`, the half-inhibitory concentration (IC50) is > 99.5 µM and 66.2 µM.

The compound `CN(C)c1cc(-c2ccc(S(=O)(=O)Nc3ccc(Cl)cc3C(=O)O)cc2)ccn1` gave an IC50 above 99.5 µM.

In the case of `CN1CC=C(c2ccc(S(=O)(=O)Nc3ccc(Cl)cc3C(=O)O)cc2)CC1`, the 50% inhibitory concentration (IC50) was above 99.5 µM.

`c1cncc(C2CC(NCc3n[nH]c4ccccc34)C2)c1` (stereo not given): the IC50 was above 99.5 µM.

`O=C(O)c1cc(Cl)ccc1S(=O)(=O)Nc1ccc(F)c(NC(=O)C2CC2)c1` came in with an IC50 above 99.5 µM.

As for `NC[C@H]1CC[C@H](CNC(=O)c2cc(Cl)cc(NC(=O)OCc3ccccc3)c2)CC1`, the IC50 was 25.4 µM and 25.7 µM.

`O=C(O)c1cc(Cl)ccc1S(=O)(=O)NC1CCN(c2nc(C3CC3)cc(C(F)(F)F)n2)CC1`: the IC50 amounted to 46.6 µM.

In turn, `CCc1ccc(S(=O)(=O)N[C@@H](C(=O)Nc2cccc(CN)c2)c2ccc(OCc3ccccc3)cc2)cc1` gave a 50% inhibitory concentration (IC50) of 52.3 µM.
